In patent publication US5637617A, “Methods for use of GABAa receptor GABAergic compounds” (The Regents of the University of California, priority 1994, dated 1997):

System: phosphoinositide/Ca2+ pathway
Test: Direct membrane current responses of oocytes to fenamates
Assay type: cell-based, Xenopus laevis
Conditions: 10-100 μM; in some oocytes

SMILES | direct membrane current responses
Cc1ccc(Cl)c(Nc2ccccc2C(=O)O)c1Cl [Meclofenamate, Meclofenamic acid] | able to elicit membrane current responses
Cc1cccc(Nc2ccccc2C(=O)O)c1C [Mefenamic acid] | able to elicit membrane current responses
